Experimental data as given in ChEMBL document CHEMBL5500403, “Discovery of a Double-Stapled Short Peptide as a Long-Acting HIV-1 Inactivator with Potential for Oral Bioavailability” (J Med Chem, 2024).
pEC50, pIC50: −log10 of the molar value. Active and inactive are the calls of the source. The calls are words filed in the database; no cut-off is given here. Bridge positions count the residues as written; N and C are the ends. Square brackets hold non-standard residues; d marks the D form. Peptide text beside a SMILES is read from it. S5 = C=CCCC[C@](C)(N)C(=O)O

Legend:
[1] = Plasma protein binding in rat by LC-MS/MS analysis; type: ADME, cell-free; details: read-out: PPB (converted)
[2] = tested on: proteinase K; assay: Proteolytic stability assessed as proteinase K (unknown origin) mediated compound degradation by measuring parent compound remaining incubated for 4 hrs by LC-MS/MS analysis; type: ADME; details: human, read-out: Stability
[3] = Toxicity in Sprague-Dawley rat assessed as change in serum creatinine level at 50 mg/kg,iv administration measured upto 6 days; type: organism-based; details: in vivo, 144 h, time < 6 day
[4] = AUClast in Sprague-Dawley rat at 10 mg/kg,iv administration measured upto 9 days by LC-MS/MS analysis; type: ADME, organism-based; details: in vivo, time < 9 day
[5] = Toxicity in Sprague-Dawley rat assessed as inflammatory cell infiltration in liver at 50 mg/kg,iv administration measured after 14 days by hematoxylin and eosin staining based assay; type: organism-based; details: in vivo, 336 h, time 14 day
[6] = tested on: Human immunodeficiency virus 1; assay: Antiviral activity against HIV-1 IIIB assessed as reduction in viral growth by measuring p24 antigen level incubated for 2 hrs by ELISA; type: functional, organism-based; details: Human immunodeficiency virus 1, IIIB
[7] = Drug concentration in Sprague-Dawley rat plasma at 50 mg/kg,po administrated for 15 hrs by LC-MS/MS analysis; type: ADME, organism-based; details: in vivo
[8] = tested on: Human immunodeficiency virus 1; assay: Antiviral activity against HIV-1 IIIB infected in human MT2 cells assessed as inhibition of viral growth at 5 uM preincubation of compound with 20% HSA; type: functional, organism-based
[9] = Selectivity index, ratio of CC50 for cytotoxicity against human MT2 cells to IC50 for antiviral activity against HIV-1 IIIB infected in human MT2 cells; type: toxicity, cell-based; details: read-out: Ratio CC50/IC50
[10] = tested on: SARS-CoV-2; assay: Antiviral activity against SARS-CoV-2 infected in human Caco-2 cells assessed as inhibition of viral growth at 2000 nM; type: functional, organism-based; details: Severe acute respiratory syndrome coronavirus 2
[11] = tested on: Human immunodeficiency virus 1; assay: Antiviral activity against HIV-1 IIIB infected in human MT2 cells assessed as inhibition of viral growth pretreated with virus for 30 mins followed by infection with cells incubated for 72 hrs by ELISA; type: functional, organism-based; details: Human immunodeficiency virus 1, IIIB
[12] = Drug concentration in Sprague-Dawley rat plasma at 50 mg/kg,po administrated for 5 days by LC-MS/MS analysis; type: ADME, organism-based; details: in vivo, 120 h, time 5 day
[13] = Toxicity in BALB/c mouse assessed as histopathological change in kidney at 100 mg/kg,iv administration measured after 14 days by hematoxylin and eosin staining based assay; type: organism-based; details: in vivo, 336 h, time 14 day
[14] = Toxicity in BALB/c mouse assessed as histopathological change in liver at 100 mg/kg,iv administration measured after 14 days by hematoxylin and eosin staining based assay; type: organism-based; details: in vivo, 336 h, time 14 day
[15] = Plasma protein binding in human by LC-MS/MS analysis; type: ADME, cell-free; details: read-out: PPB (converted)
[16] = tested on: Human immunodeficiency virus 1; assay: Antiviral activity against T20-resistant HIV-1 NL4-3 harboring […] V38E and N42S mutant assessed as reduction in viral growth by measuring p24 antigen level incubated for 2 hrs by ELISA; type: functional, organism-based
[17] = tested on: Human immunodeficiency virus 1; assay: Antiviral activity against T20-resistant HIV-1 NL4-3 harboring […] N42T and N43K mutant infected in human MT2 cells assessed as inhibition of viral growth pretreated with virus for 30 mins followed by infection with cells incubated for 72 hrs by ELISA; type: functional, organism-based
[18] = Toxicity in male BALB/c mouse assessed as change in body weight at 20 mg/kg,iv administration measured upto 14 days; type: organism-based; details: in vivo, 336 h, time < 14 day
[19] = Toxicity in BALB/c mouse assessed as histopathological change in liver at 20 mg/kg,iv administration measured after 14 days by hematoxylin and eosin staining based assay; type: organism-based; details: in vivo, 336 h, time 14 day
[20] = Volume of distribution at steady state in Sprague-Dawley rat at 10 mg/kg,iv administration measured upto 9 days by LC-MS/MS analysis; type: ADME, organism-based; details: in vivo, 216 h, time < 9 day
[21] = target: chymotrypsin (Homo sapiens, UniProt P17538+P40313+Q6GPI1+Q99895); assay: Proteolytic stability assessed as Chymotrypsin (unknown origin) mediated compound degradation by measuring parent compound remaining incubated for 2 hrs by LC-MS/MS analysis; type: ADME, protein assay; details: read-out: Stability
[22] = Drug concentration in Sprague-Dawley rat plasma assessed as fold increase in drug uptake at 10 mg/kg,iv administrated upto 8 days by LC-MS/MS analysis; type: ADME, organism-based; details: in vivo, 192 h, time < 8 day
[23] = tested on: Human immunodeficiency virus 1; assay: Antiviral activity against HIV-1 clinical isolate X4-89BZ167 assessed as reduction in viral growth by measuring p24 antigen level incubated for 2 hrs by ELISA; type: functional, organism-based; details: Human immunodeficiency virus 1, clinical isolate X4-89BZ167, 2 h
[24] = Toxicity in Sprague-Dawley rat assessed as histopathological change in liver at 50 mg/kg,iv administration measured after 14 days by hematoxylin and eosin staining based assay; type: organism-based; details: in vivo, 336 h, time 14 day
[25] = Apparent permeability in human Caco-2 cells at 5 uM; type: ADME, cell-based
[26] = Stability in human liver microsomes in presence of NADPH by LC-MS/MS analysis; type: ADME, Microsome
[27] = Toxicity in Sprague-Dawley rat assessed as neural damage by measuring NeuN positive cell at 50 mg/kg,iv administration measured after 14 days; type: organism-based; details: in vivo, 336 h, time 14 day
[28] = Biodistribution in Sprague-Dawley rat intestine assessed as fold increase in AUC at 1 mg/kg,iv administration measured after 12 days by LC-MS/MS analysis; type: ADME, organism-based; details: in vivo, 288 h, time 12 day
[29] = Biodistribution in Sprague-Dawley rat lymph node assessed as fold increase in AUC at 1 mg/kg,iv administration measured after 12 days by LC-MS/MS analysis; type: ADME, organism-based; details: in vivo, 288 h, time 12 day
[30] = tested on: Human immunodeficiency virus 1; assay: Antiviral activity against T20-resistant HIV-1 NL4-3 harboring […] N42T and N43K mutant assessed as reduction in viral growth by measuring p24 antigen level incubated for 2 hrs by ELISA; type: functional, organism-based
[31] = Toxicity in BALB/c mouse assessed as change in serum ALT level at 20 mg/kg,iv administration measured upto 6 days; type: organism-based; details: in vivo, 144 h, time < 6 day
[32] = tested on: Human immunodeficiency virus 1; assay: Antiviral activity against HIV-1 IIIB infected in human MT2 cells assessed as inhibition of viral growth at 5 uM preincubation of compound with 10% HSA; type: functional, organism-based
[33] = Toxicity in Sprague-Dawley rat assessed as cell degeneration in liver at 50 mg/kg,iv administration measured after 14 days by hematoxylin and eosin staining based assay; type: organism-based; details: in vivo, 336 h, time 14 day
[34] = Toxicity in Sprague-Dawley rat assessed as inflammatory cell infiltration in kidney at 50 mg/kg,iv administration measured after 14 days by hematoxylin and eosin staining based assay; type: organism-based; details: in vivo, 336 h, time 14 day
[35] = Toxicity in BALB/c mouse assessed as change in serum creatinine level at 100 mg/kg,iv administration measured upto 6 days; type: organism-based; details: in vivo, 144 h, time < 6 day
[36] = Stability in Sprague-Dawley rat liver microsomes in presence of NADPH by LC-MS/MS analysis; type: ADME, Microsome
[37] = Biodistribution in Sprague-Dawley rat testis assessed as fold increase in AUC at 1 mg/kg,iv administration measured after 12 days by LC-MS/MS analysis; type: ADME, organism-based; details: in vivo, 288 h, time 12 day
[38] = Toxicity in male BALB/c mouse assessed as change in body weight at 100 mg/kg,iv administration measured upto 14 days; type: organism-based; details: in vivo, 336 h, time < 14 day

CC(=O)NCC(=O)N[C@@]1(C)CCC/C=C\CCC[C@@](C)(C(=O)N[C@@H](Cc2ccc(O)cc2)C(=O)N[C@@H](CC(C)C)C(=O)N[C@@]2(C)CCC/C=C\CCC[C@@](C)(C(=O)N[C@@H](Cc3ccc(O)cc3)C(=O)N[C@@H](Cc3c[nH]c4ccccc34)C(N)=O)NC(=O)[C@H](CC(C)C)NC(=O)[C@H](CC(C)C)NC(=O)[C@H](CC(N)=O)NC2=O)NC(=O)[C@H](CC(C)C)NC(=O)[C@H](C)NC(=O)[C@H](CCC(=O)O)NC1=O (Ac-G[S5]EAL[S5]YL[S5]NLL[S5]YW-NH2; staple (Z) 2-6, 9-13)
fraction unbound [1]: 0.153 | remaining at 4 h [2]: 89.6% | Activity [3]: Non-Toxic | AUC(0-t) at 216 h [4]: 334 µg·h/mL | Activity [5]: Non-Toxic | pEC50 [6]: 8.09 | Drug uptake [7]: Active | Activity [8]: Active | selectivity ratio [9]: 216 | Activity [10]: inactive | pIC50 [11]: 7.63 | Drug uptake [12]: Active | Activity [13]: Non-Toxic | Activity [14]: Non-Toxic | fraction unbound [15]: 0.182 | pEC50 [16]: 7.30 | pIC50 [17]: 6.91 | Activity [18]: Non-Toxic | Activity [19]: Non-Toxic | Vdss [20]: 3.6489 L/kg | remaining at 2 h [21]: > 56.8% | fold change (FC) [22]: 8.3 | pEC50 [23]: 7.35 | Activity [24]: Non-Toxic | Papp at 5 µM [25]: < 0.02 ×10⁻⁶ cm/s | Stability [26]: Stable | Activity [27]: Non-Toxic | fold change (FC) [28]: 10 | fold change (FC) [29]: 10 | pEC50 [30]: 6.94 | Activity [31]: Non-Toxic | Activity [32]: Active | Activity [33]: Non-Toxic | Activity [34]: Non-Toxic | Activity [35]: Non-Toxic | Stability [36]: Stable | fold change (FC) [37]: 15 | Activity [38]: Non-Toxic
